The values that follow come from article PMC8159961, “Exploring protein hotspots by optimized fragment pharmacophores” (Nature Communications, 2021).

pEC50, pIC50: −log10 of the molar value. Where “and” joins values, the source holds several entries; their conditions need not be identical. Equal entries are not always repeated. Where two headings read alike, the source gives them in different places.

Test [1] has as its target SARS-CoV-2 3CLPro (Severe acute respiratory syndrome coronavirus 2, UniProt P0DTD1). Description: biochemical.
Test [2] concerns SARS-CoV-2. Description: microbe, parasite or virus in culture. The class given is cell-based.
Test [3] relates to COVID-19. Further details: method as in PMID 33264556. The settings on record: trial discontinued in July 2020; cited from earlier work.

A word on the pIC50: it is −log10 of the IC50, conventionally taken in molar units. The low end stands for a large IC50, the high end for a small IC50. By inhibition is commonly meant the drop in the measured response relative to a control, in per cent. Read a low inhibition as a response near the control. The term pEC50 denotes the EC50 on a negative log10 scale, so that one unit is a factor of ten. The molecule `CS(=O)(=O)c1ccc(N2CCNCC2)cc1` [SX013] had a negative-log IC50 (pIC50) in test [1] of 4.51. Further, the “Inhibition (%)” value in test [2] (10 uM, Vero E6, replicates) was 0% (2×) and 3.199%; in test [2] (100 uM, Vero E6, replicates), 10.36% and 9.981% and 0%; in test [2] (250 uM, Vero E6, replicates) it was 47.65% and 50.9%; in test [2] (500 uM, Vero E6, replicates), 62.09% and 74.66%; in test [2] (750 uM, Vero E6, replicates), 96.1% and 86.32%; in test [2] (1000 uM, Vero E6, replicates), 99.81%. For the same molecule, the “Inhibition (%)” value in test [2] (1500 uM, Vero E6, replicates) stood at 99.97%. Besides, the “viral copy numbers normalized to the control (untreated infected cells)” value in test [2] (10 uM, Vero E6, replicates) was 1.473 and 0.968 and 1.581; in test [2] (100 uM, Vero E6, replicates), 0.8964 and 0.9002 and 2.418; in test [2] (250 uM, Vero E6, replicates), 0.5487 and 0.5235 and 0.491; in test [2] (500 uM, Vero E6, replicates), 0.2563 and 0.3791 and 0.2534; in test [2] (750 uM, Vero E6, replicates) it was 0.06859 and 0.03899 and 0.1368; in test [2] (1000 uM, Vero E6, replicates), 0.003839 and 0.001919 and 0. The “viral copy numbers normalized to the control (untreated infected cells)” value in test [2] (1500 uM, Vero E6, replicates) was 0 (2×) and 0.000289. Testing at 250 µM in test [2] (Severe acute respiratory syndrome coronavirus 2, Vero C1008, 250 uM, Vero E6, replicates) gave an inhibition of 45.1%. This molecule also came in with an inhibition at 500 µM in test [2] (Severe acute respiratory syndrome coronavirus 2, Vero C1008, 500 uM, Vero E6, replicates) of 74.4%. At 750 µM the inhibition in test [2] (Severe acute respiratory syndrome coronavirus 2, Vero C1008, 750 uM, Vero E6, replicates) was 93.1%. Also, in test [2] (Severe acute respiratory syndrome coronavirus 2, Vero C1008, 1000 uM, Vero E6, replicates), 1000 µM produced 99.6% inhibition. The molecule further had an inhibition at 1500 µM in test [2] (Severe acute respiratory syndrome coronavirus 2, Vero C1008, 1500 uM, Vero E6, replicates) of 100%. The negative-log EC50 (pEC50) was 3.52 in test [2] (Severe acute respiratory syndrome coronavirus 2, Vero C1008, 48 h, read-out: EC50, blocking SARS-CoV-2 replication, Vero E6 cells, 48 h post infection) and 3.52 in test [2] (read-out: EC50, blocking SARS-CoV-2 replication, Vero E6 cells, 48 h post infection).
lopinavir/ritonavir: in test [3], the “clinical trial outcome against COVID-19” value is reported as “ineffectiveness”.
